From PubChem BioAssay (NCI) come the findings set out here.

Assay in all cases: NCI anticancer screen, dose series, 48 h
Assay [1] concerns UO-31 renal.
For assay [2], the system named is RXF 393 renal.
The test system of assay [3] is SK-MEL-2 melanoma.
In assay [4] the test system is EKVX NSCLC.
For assay [5], the system named is HCT-15 colon.
Assay [6] relates to SF-295 CNS.
Assay [7] concerns NCI/ADR-RES ovarian.
For assay [8], the system named is ACHN renal.
Assay [9] has as its system SF-268 CNS.
The subject of assay [10] is BT-549 breast.

The structures appear in SMILES notation. Where “and” joins values, the source holds several entries; their conditions need not be identical. Identical values can stand only once.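 Each compound was tested at five concentrations against cells in 96-well plates for 48 hours. The concentration for 50% growth inhibition is given as GI50. TGI: total growth inhibition.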 A value given as a limit tells only on which side of the number the result lay.

In the case of `COC1(OC)N=C(N)C2(C#N)/C(=N/N(C)C)CC(C)C12C#N` (stereo not drawn), the TGI in assay [1], in [2], in [3], in [4], in assay [5] and in assay [6] was more than 100 µM each time. In addition, the TGI in [7], in assay [8] and in assay [9] was more than 100 µM each time.
As to `COc1ccc(C=O)cc1Oc1ccc(C[C@H]2c3c(cc(OC)c4c3Oc3cc5c(cc3O4)CCN(C)C5=O)CCN2C)cc1`, the TGI in assay [1] stood at 14.6 µM; in [2], 10.8 µM; in assay [3], 22.9 µM; in [4], 22.3 µM; in [5], 27.5 µM; in [6], 16.3 µM. Further, the TGI amounted to 16.2 µM in assay [7], 18.4 µM in assay [8] and 22.4 µM in [9].
As for `COCCCN1C(=O)C2c3[nH]c4ccccc4c3C3CCC(C(C)(C)C)CC3C2C1=O` (stereo not drawn), the TGI in [1] is more than 100 µM; in [2] it was 51.3 µM; in assay [4], more than 100 µM; in assay [5] it was 44.7 µM; in assay [10] it was more than 100 µM; in [6], 56.3 µM. The TGI in assay [7] is more than 10 µM; in assay [8], 83.9 µM; in assay [9], more than 100 µM.
As to `COC(=O)CCc1ccc2c(c1)CC1(C2)Cc2ccc(CCC(=O)OC)cc2C1`, the TGI in assay [1], in assay [2], in assay [3], in [4], in assay [5] and in assay [6] was more than 100 µM each time. In addition, the TGI in [7] and in assay [8] was more than 100 µM in each case.
As for `COc1ccc([C@@]23CCC(=O)C[C@@H]2N(C)CC3)cc1OC`, the TGI in assay [1], in assay [2], in assay [3], in [4], in assay [5] and in assay [6] was more than 100 µM throughout. Also, the TGI in assay [7], in [8] and in assay [9] was more than 100 µM each time.
In the case of `CSc1s[s+]c(SC)c1-c1ccccc1`, the TGI was determined as 46.3 µM in [1]; 30.4 µM in assay [2]; 33 µM in assay [4]; 41.5 µM in assay [5]; 28.2 µM in [10]; 36.9 µM in [6]. Also, the TGI in assay [7] came to 42.1 µM; in [8], 32.8 µM; in [9], 43 µM.
On to `O=C(Nc1ccccc1)N1N=C(c2ccccc2)C1c1ccccc1` (stereo not drawn), for which the TGI in assay [1] is 69.6 µM; in [2], 44.5 µM; in assay [4], more than 100 µM; in assay [5], more than 100 µM; in assay [10], 64.4 µM; in assay [6], 73.8 µM. The TGI in [7] is 82.2 µM; in [8] it was 65.8 µM; in assay [9], 50.8 µM.
For `CN(C)CCNC(=O)c1cccc2c(NC(CS)C(=O)O)c3ccccc3nc12` (stereo not drawn), the TGI in assay [1] amounted to 11.8 µM; in [3] it was 27.7 µM; in [4], 39.3 µM; in assay [5], 26.3 µM; in assay [10], 45.6 µM; in assay [6], 28.9 µM. The TGI in [7] was more than 100 µM; in assay [8], 59.8 µM; in assay [9], 39.6 µM.
`COc1cccc(N2N=C3c4ccccc4-n4c(nc5ccccc54)C3C2N)c1` (stereo not drawn): the TGI in assay [1], in assay [3], in assay [4], in assay [5], in assay [10] and in assay [6] was more than 100 µM each time. For the same compound, the TGI in [7], in assay [8] and in [9] was more than 100 µM each time.
Regarding `CSc1nc(Br)nc2c1ncn2C1CC(Oc2ccc(C)cc2)C(COc2ccc(C)cc2)O1` (stereo not drawn), the TGI in assay [3], in [4], in assay [5], in [10], in assay [6] and in [7] was more than 100 µM in each case. Further, the TGI in [8] and in assay [9] was more than 100 µM in each case.
On to `C=C(CCC(C(=O)O)C1CCC2(C)C3=C(CCC12C)C1(C)CCC(O)C(C)(C)C1CC3)C(C)C` (stereo not drawn), for which the TGI is more than 100 µM in [1]; more than 100 µM in [3]; more than 100 µM in assay [4]; 68.5 µM in [5]; more than 100 µM in [10]; more than 100 µM in [6]. In addition, the TGI in [7] was 70.5 µM; in assay [8] it was more than 100 µM; in [9] it was more than 100 µM.
As for `COC(=O)c1ccc(OCc2ccc3nc(-c4ccccc4)c(Cl)nc3c2)cc1`, the TGI in [1], in assay [3], in assay [4], in [5], in assay [10] and in assay [6] was more than 100 µM each time. Besides, the TGI in [7], in assay [8] and in [9] was more than 100 µM in each case.
In the case of `COC(=O)C(Cc1ccccc1)NC(=O)CCCNC(=O)OCc1ccccc1` (stereo not drawn), the TGI in [1], in assay [4], in [5], in assay [10], in assay [6] and in [7] was more than 100 µM throughout. The TGI in assay [8] and in assay [9] was more than 100 µM in each case.
For `C=CCOn1c(C=C)nc2c(C)cccc21`, the TGI came to 6.03 µM in assay [1]; 4.79 µM in [3]; 29.2 µM in [4]; 13.9 µM in [5]; 19.1 µM in [10]; 21 µM in assay [6]. Besides, the results for the TGI in [8] and in assay [9] were 7.15 µM and 26.5 µM, respectively.
As to `CCCCCCCC(CC(=O)O)OC(=O)CC(CCCCCCC)OC1OC(C)C(O)C(O)C1OC1OC(C)C(O)C(O)C1O` (stereo not drawn), the TGI in [1], in [3], in assay [4], in [5], in assay [10] and in assay [6] was more than 100 µM throughout. Moreover, the TGI in assay [7], in assay [8] and in [9] was more than 100 µM in each case.
For the compound `COc1ccc(CC2C(=O)NC(C)C(=O)N(C)C3Cc4ccc(cc4)Oc4cc(ccc4O)CC(C(=O)NC(C)C(=O)NC(C)C(=O)N2C)N(C)C3=O)cc1` (stereo not drawn), the GI50 in assay [1] was 240 nM; in assay [3] it was less than 0.0001 µM; in assay [4], 0.00125 µM; in assay [5], 1.27 µM; in assay [7], 15.2 µM; in assay [8], 450 nM. Further, in [9], the GI50 was less than 0.0001 µM. Moreover, the TGI was 5.75 µM and 4.16 µM in assay [1]; 0.0731 µM in assay [2]; 0.144 µM and 0.0424 µM in [4]; 14.9 µM in assay [5]; 78.6 µM in assay [7]; 45 µM in assay [8].
With `CSc1nc2c(ncn2C2OCC(O)C(O)C2O)c(=O)[nH]1` (stereo not drawn), the TGI in [1], in [2], in [3], in assay [4], in assay [5] and in assay [6] was more than 100 µM each time. In addition, the TGI in assay [7] and in assay [9] was more than 100 µM throughout.
As for `Cc1cnc2[nH]c(-c3ccccc3)cc(=O)c2c1`, the TGI in assay [1] was 68 µM; in [3] it was more than 35.7 µM; in assay [4], more than 82.2 µM; in [5], 1.41 µM; in assay [10] it was more than 100 µM; in [7], 0.0447 µM. In addition, the TGI in assay [8] and in [9] was more than 100 µM in each case.
As for `CC(=O)c1c(O)c(C)c(O)c2c1OC1=CC(=O)C(C(C)=O)C(=O)C12C` (stereo not drawn), the GI50 in assay [1] was 1960 nM and 18200 nM; in [2], 5.72 µM and 19.2 µM; in [3], 4.42 µM and 25.4 µM; in [4], 4.39 µM and 20.3 µM; in assay [5] it was 5.23 µM and 16.6 µM; in [6], 3.48 µM and 8.79 µM. Moreover, the GI50 was 4.05 µM and 16.7 µM in assay [7]; 9.46 µM and 26.1 µM in assay [9]. For the same compound, the TGI in [1] was 7.08 µM and 53.6 µM; in assay [2], 22.8 µM and 43.8 µM; in assay [3], 14.5 µM and 50.6 µM; in assay [4] it was 17 µM and 48.2 µM; in assay [5] it was 27.6 µM and 60.4 µM; in assay [6], 12.4 µM and 33.8 µM. Further, the TGI is 13.5 µM and 55.7 µM in [7]; 42.2 µM and 91.7 µM in assay [9].
With `C=C1C(=O)C[C@@]23CCC[C@@]12CC(O)C3` (stereo partly drawn), the TGI in assay [1] was more than 94.6 µM; in assay [2], 33.8 µM; in assay [3], 73.2 µM; in assay [4] it was more than 73.5 µM; in assay [5] it was 28.8 µM; in assay [6], more than 100 µM. Further, the values for the TGI in [7] and in assay [9] were 42.8 µM and more than 100 µM, respectively.
`C=CC1(CCC(Br)C(C)(C)Cl)CO1` (stereo not drawn): the TGI in assay [1], in assay [3], in [4], in assay [5], in [10] and in [6] was more than 10 µM in each case. For the same compound, the TGI in [7], in assay [8] and in assay [9] was more than 10 µM in each case.
